Patent US8846675B2, “N-linked heterocyclic receptor agonists for the treatment of diabetes and metabolic disorders” (Cymabay Therapeutics, Inc., priority 2007, dated 2014)
Structures can show the parent of a compound that is named as a salt.

Molecular target: T1, IC-GPCR2 (Homo sapiens, UniProt Q8TDV5)
T1 construct: expressed in transfected cells
T1 sequence (Q8TDV5 1-335 S309L): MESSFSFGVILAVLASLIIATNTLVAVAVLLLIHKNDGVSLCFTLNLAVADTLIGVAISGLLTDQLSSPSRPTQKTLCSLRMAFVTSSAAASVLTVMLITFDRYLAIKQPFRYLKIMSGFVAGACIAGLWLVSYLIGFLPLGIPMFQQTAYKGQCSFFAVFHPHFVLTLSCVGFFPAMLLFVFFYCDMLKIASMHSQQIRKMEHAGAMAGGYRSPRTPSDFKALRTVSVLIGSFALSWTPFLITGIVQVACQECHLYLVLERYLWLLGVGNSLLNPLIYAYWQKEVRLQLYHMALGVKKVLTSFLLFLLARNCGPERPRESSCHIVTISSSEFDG
Assay: Stimulation of cAMP in CHO cell line stably expressing IC-GPCR2 (HTRF cAMP dynamic kit)
Type: cell-based
Settings: 3 μM compound; relative to maximal activity of 5-Ethyl-2-{4-[4-(4-tetrazol-1-yl-phenoxymethyl)-thiazol-2-yl]-piperidin-1-yl}-pyrimidine (=100%); IC-GPCR2 stably expressing CHO cells, 30 minutes
Description: This assay was developed using a stable cell line expressing IC-GPCR-2, generated as follows. IC-GPCR2 (Seq. ID No. 1) was cloned into Gateway pDEST 40vector (Invitrogen), using the Gateway cloning system (invitrogen) according to the manufacturers instructions. A stable cell line was generated by transfecting a 10 cm plate of CHO cells (source) with 8 ug of this construct using Transit-CHO transfection kit (Mirus). CHO cells were plated the day prior to transfection at a density of 3,000,000 cells/plate. Clones were selected using the antibiotic G418 at 500 ug/ml. 23 clones were picked and assayed for the expression of the receptor by measuring changes in intracellular cAMP levels in response to an IC-GPCR2 agonist (Arena 51).
To measure cAMP activity in response to IC-GPCR2 agonist, the clones were plated in 96 well plates at 17500 cells per well. On the day after plating, cells were incubated with the IC-CPCR2 agonist at […] for 30 minutes in Ham's F12 Media (Gibco) with 0.04% DMSO. cAMP was measured using the cAMP dynamic kit from C is Bio (Bedford, Mass.) according to the manufacturers instructions. Briefly, cells were lysed, and cAMP levels determined by competitive immunoassay using D2 labeled cAMP, and europium cryptate tagged anti cAMP antibody. When in close proximity, the D2 and europium cryptate undergo fluorescence resonance energy transfer (FRET), which is measured as a fluorescence ratio (665 nm/620 nm). Unlabelled cAMP in the cell lysatc competed with the D2 labeled cAMP for the europium crypate labeled antibody. The resulting decrease in FRET signal corresponded to intracellular cAMP levels. Fluorescence was read on a BMG Labtech PHERAstar, software version 1.50.
The clone with the greatest response to IC-GPCR2 agonist was selected for the screening assay.
Compounds were dissolved in 100% DMSO to a concentration of […] to provide stock solutions. To determine activity against IC-GPCR2, compounds were incubated with IC-GPCR2 stably expressing cells (described above), at 6-8 concentrations ranging from 0.00003 to 10 micromolar, in 96 well plates, in 50 ul of Hams F12 media for 30 minutes. Cells were plated at 17500 cells per well 1 day before running the assay. All compounds were also screened against the parental CHO cells. cAMP was measured using the cAMP dynamic kit from Cis Bio (Bedford, Mass.), according to the manufacturer's instructions. Briefly, cells were lysed and cAMP levels determined by competitive immunoassay using D2 labeled cAMP, and europium cryptate tagged anti cAMP antibody. When in close proximity, the D2 and europium cryptate undergo fluorescence resonance energy transfer (FRET), which is measured as a fluorescence ratio (665 nm/620 nm). Unlabelled cAMP in the cell lysate competed with the D2 labeled cAMP for the europium crypate labeled antibody. The resulting decrease in FRET signal corresponded to intracellular cAMP levels
To determine percent activity for a tested compound, the FRET signal value obtained at a particular concentration are compared to the Maximal FRET signal value obtained for 5-Ethyl-2-{4-[4-(4-tetrazol-1-yl-phenoxymethyl)-thiazol-2-yl]-piperidin-1-yl}-pyrimidine. The maximal activity of 5-Ethyl-2-{4-[4-(4-tetrazol-1-yl-phenoxymethyl)-thiazol-2-yl]-piperidin-1-yl}-pyrimidine is designated as 100% activity. Typically, the concentration of 5-Ethyl-2-{4-[4-(4-tetrazol-1-yl-phenoxymethyl)-thiazol-2-yl]-piperidin-1-yl}-pyrimidine in the assay was approximately 0.1 μM. The synthesis of 5-Ethyl-2-{4-[4-(4-tetrazol-1-yl-phenoxymethyl)-thiazol-2-yl]-piperidin-1-yl}-pyrimidine is disclosed in co-owned pending U.S. patent application Ser. No. 11/964,461, herein incorporated by reference. Activities of compounds that were tested are shown in Table 1 below and are expressed as % activity at 3 μM compound compared to the maximal activity of 5-Ethyl-2-{4-[4-(4-tetrazol-1-yl-phenoxymethyl)-thiazol-2-yl]-piperidin-1-yl}-pyrimidine at 3 μM.

SMILES	% activity at 3 μM [%]
FC(F)(F)c1cnc(N2CCC(n3ncc(COc4ccc(-n5cnnn5)nc4)n3)CC2)nc1 [Example 22, 2-{4-[4-(6-Tetrazol-1-yl-pyridin-3-yloxymethyl)-[1,2,3]triazol-2-yl]-piperidin-1-yl}-5-trifluoromethyl-pyrimidine]	78.44
c1cc(-n2cnnn2)ncc1OCc1cnn(C2CCN(c3nc(C4CC4)no3)CC2)n1 [Example 29, 5-{2-[1-(3-Cyclopropyl-[1,2,4]oxadiazol-5-yl)-piperidin-4-yl]-2H-[1,2,3]triazol-4-ylmethoxy}-2-tetrazol-1-yl-pyridine]	48.76
Fc1cnc(N2CCC(n3ncc(COc4ccc(-n5cnnn5)cc4F)n3)CC2)nc1 [Example 30, 5-Fluoro-2-(4-(4-((2-fluoro-4-(1H-tetrazol-1-yl)phenoxy)methyl)-2H-1,2,3-triazol-2-yl)piperidin-1-yl)pyrimidine]	53.41
Fc1cnc(N2CCC(n3ncc(COc4ccc(-n5cnnn5)nc4)n3)CC2)nc1 [Example 31, 2-(4-(4-((6-(1H-tetrazol-1-yl)pyridin-3-yloxy)methyl)-2H-1,2,3-triazol-2-yl)piperidin-1-yl)-5-fluoropyrimidine]	59.95
CCc1cnc(N2CCC(n3ncc(COc4ccc(-n5cnnn5)nc4)n3)CC2)nc1 [Example 32, 2-(4-(4-((6-(1H-tetrazol-1-yl)pyridin-3-yloxy)methyl)-2H-1,2,3-triazol-2-yl)piperidin-1-yl)-5-ethylpyrimidine]	75.55
CC(C)OC(=O)N1CCC(n2ncc(COc3ccc(-n4cnnn4)nc3)n2)CC1 [Example 35, Isopropyl 4-(4-((6-(1H-tetrazol-1-yl)pyridin-3-yloxy)methyl)-2H-1,2,3-triazol-2-yl)piperidine-1-carboxylate]	72.14
CC(C)OC(=O)N1CCC(n2ncc(COc3ccc(S(C)(=O)=O)cc3F)n2)CC1 [Example 36, Isopropyl 4-(4-((2-fluoro-4-(methylsulfonyl)phenoxy)methyl)-2H-1,2,3-triazol-2-yl)piperidine-1-carboxylate]	70.06
CC(C)OC(=O)N1CCC(n2ncc(COc3ccc(-n4cnnn4)cc3F)n2)CC1 [Example 37, Isopropyl 4-(4-((2-fluoro-4-(1H-tetrazol-1-yl)phenoxy)methyl)-2H-1,2,3-triazol-2-yl)piperidine-1-carboxylate]	62.88
O=S(=O)(c1c[nH]cn1)N1CCC(n2ncc(COc3ccc(-n4cnnn4)nc3)n2)CC1 [Example 40, 5-((2-(1-(1H-Imidazol-4-ylsulfonyl)piperidin-4-yl)-2H-1,2,3-triazol-4-yl)methoxy)-2-(1H-tetrazol-1-yl)pyridine]	7.10
O=S(=O)(C1CC1)N1CCC(n2ncc(COc3ccc(-n4cnnn4)nc3)n2)CC1 [Example 41, 5-((2-(1-(Cyclopropylsulfonyl)piperidin-4-yl)-2H-1,2,3-triazol-4-yl)methoxy)-2-(1H-tetrazol-1-yl)pyridine]	42.63
O=S(=O)(C1CCCCC1)N1CCC(n2ncc(COc3ccc(-n4cnnn4)nc3)n2)CC1 [Example 44, 5-((2-(1-(Cyclohexylsulfonyl)piperidin-4-yl)-2H-1,2,3-triazol-4-yl)methoxy)-2-(1H-tetrazol-1-yl)pyridine]	70.92
CC(C)S(=O)(=O)N1CCC(n2ncc(COc3ccc(-n4cnnn4)nc3)n2)CC1 [Example 45, 5-((2-(1-(Isopropylsulfonyl)piperidin-4-yl)-2H-1,2,3-triazol-4-yl)methoxy)-2-(1H-tetrazol-1-yl)pyridine]	67.58
CCCCS(=O)(=O)N1CCC(n2ncc(COc3ccc(-n4cnnn4)nc3)n2)CC1 [Example 46, 5-((2-(1-(Butylsulfonyl)piperidin-4-yl)-2H-1,2,3-triazol-4-yl)methoxy)-2-(1H-tetrazol-1-yl)pyridine]	79.78
O=S(=O)(Cc1ccccc1)N1CCC(n2ncc(COc3ccc(-n4cnnn4)nc3)n2)CC1 [Example 47, 5-((2-(1-(Benzylsulfonyl)piperidin-4-yl)-2H-1,2,3-triazol-4-yl)methoxy)-2-(1H-tetrazol-1-yl)pyridine]	74.90
Cc1ncccc1OCc1cnn(C2CCN(c3ncc(C(F)(F)F)cn3)CC2)n1 [Example 48]	83.24
CC(C)(C)OC(=O)N1CCC(CC(=O)N2CCC(n3ncc(COc4ccc(-n5cnnn5)nc4)n3)CC2)CC1 [Example 50, tert-Butyl 4-(2-(4-(-((6-(1H-tetrazol-1-yl)pyridine-3-yloxy)methyl)-2H-1,2,3-triazol-2-yl)piperidin-1-yl)-2-oxoethyl)piperidine-1-carboxylate]	49.51
O=C(CC1CCNCC1)N1CCC(n2ncc(COc3ccc(-n4cnnn4)nc3)n2)CC1 [Example 51, 1-(4-(4-((6-(1H-Tetrazol-1-yl)pyridin-3-yloxy)methyl)-2H-1,2,3-triazol-2-yl)piperidin-1-yl)-2-(piperidin-4-yl)ethanone hydrochloride]	57.93
COC(=O)Cc1cnc(N2CCC(n3ncc(COc4ccc(-n5cnnn5)nc4)n3)CC2)nc1 [Example 52, Methyl 2-(2-(4-(4-((6-(1H-tetrazol-1-yl)pyridin-3-yloxy)methyl)-2H-1,2,3-triazol-2-yl)piperidin-1-yl)pyrimidin-5-yl)acetate]	52.86
C[C@H](NC(=O)OC(C)(C)C)C(=O)N1CCC(n2ncc(COc3ccc(-n4cnnn4)nc3)n2)CC1 [Example 54, (S)-tert-Butyl 1-(4-(4-((6-(1H-tetrazol-1-yl)pyridin-3-yloxy)methyl)-2H-1,2,3-triazol-2-yl)piperidin-1-yl)-1-oxopropan-2-ylcarbamate]	36.82
C[C@H](N)C(=O)N1CCC(n2ncc(COc3ccc(-n4cnnn4)nc3)n2)CC1 [Example 55, (S)-1-(4-(4-((6-(1H-tetrazol-1-yl)pyridin-3-yloxy)methyl)-2H-1,2,3-triazol-2-yl)piperidin-1-yl)-2-aminopropan-1-one hydrochloride]	31.89
CC(C)(C)OC(=O)N[C@H](CC(=O)N1CCC(n2ncc(COc3ccc(-n4cnnn4)nc3)n2)CC1)Cc1cc(F)c(F)cc1F [Example 56, (S)-tert-Butyl 4-(4-(4-((6-(1H-tetrazol-1-yl)pyridin-3-yloxy)methyl)-2H-1,2,3-triazol-2-yl)piperidin-1-yl)-4-oxo-1-(2,4,5-trifluorophenyl)butan-2-ylcarbamate]	7.31
N[C@H](CC(=O)N1CCC(n2ncc(COc3ccc(-n4cnnn4)nc3)n2)CC1)Cc1cc(F)c(F)cc1F [Example 57, (S)-1-(4-(4-((6-(1H-tetrazol-1-yl)pyridin-3-yloxy)methyl)-2H-1,2,3-triazol-2-yl)piperidin-1-yl)-3-amino-4-(2,4,5-trifluorophenyl)butan-1-one hydrochloride]	27.80
